We go through 20 compounds from ChEMBL document CHEMBL4400566, “Discovery of new ureido benzenesulfonamides incorporating 1,3,5-triazine moieties as carbonic anhydrase I, II, IX and XII inhibitors” (Bioorg Med Chem, 2019).

Each structure is given as a SMILES string.

A word on the Ki: it is the dissociation constant of the complex between target and ligand, obtained from inhibition or displacement. A low value points to higher affinity.

The target in this assay is Carbonic anhydrase 9 (Homo sapiens, UniProt Q16790).
Description: Inhibition of recombinant human carbonic anhydrase 9 incubated for 15 mins prior to testing measured for 5 to 10 secs by phenol red-based stopped-flow CO2 hydration assay
For `NS(=O)(=O)c1ccc(NC(=O)Nc2nc(Nc3ccc(F)cc3)nc(N3CCCCC3)n2)cc1`, the Ki amounted to 151 nM.

`NS(=O)(=O)c1ccc(NC(=O)Nc2nc(Nc3ccc(F)cc3)nc(N3CCOCC3)n2)cc1` showed a Ki of 185 nM. This Ki and that of the compound before are within 1.5-fold of each other.

`NS(=O)(=O)c1ccc(NC(=O)Nc2nc(Cl)nc(Nc3ccc(S(N)(=O)=O)cc3)n2)cc1` yielded a Ki of 11.8 nM. This Ki lies about 16-fold lower than the previous one.

As for `NS(=O)(=O)c1ccc(NC(=O)Nc2nc(Nc3ccccc3)nc(N3CCOCC3)n2)cc1`, the Ki stood at 36.9 nM.

In turn, `NS(=O)(=O)c1ccc(NC(=O)Nc2nc(Cl)nc(Nc3ccccc3)n2)cc1` registered a Ki of 14.1 nM.

Take `NS(=O)(=O)c1ccc(NC(=O)Nc2nc(Nc3ccc(Cl)c(Cl)c3)nc(N3CCOCC3)n2)cc1`: the Ki came out at 105 nM.

With `CN(C)c1nc(NC(=O)Nc2ccc(S(N)(=O)=O)cc2)nc(Nc2ccc(Cl)cc2)n1`, the inhibition constant Ki is 38.1 nM.

`NS(=O)(=O)c1ccc(NC(=O)Nc2nc(Cl)nc(Nc3ccc(F)cc3)n2)cc1` yielded a Ki of 46.8 nM.

`NS(=O)(=O)c1ccc(NC(=O)Nc2nc(Nc3ccc(Cl)c(Cl)c3)nc(N3CCCCC3)n2)cc1` gave a Ki of 87.9 nM.

Compound `NS(=O)(=O)c1ccc(NC(=O)Nc2nc(Nc3ccc(Cl)cc3)nc(N3CCCCC3)n2)cc1` yielded a Ki of 43.3 nM. This Ki lies about 2-fold lower than the previous one.

As for `NS(=O)(=O)c1ccc(NC(=O)Nc2nc(Nc3ccc(Cl)cc3)nc(N3CCOCC3)n2)cc1`, the Ki amounted to 28.6 nM.

In turn, `CN(C)c1nc(NC(=O)Nc2ccc(S(N)(=O)=O)cc2)nc(Nc2ccc(F)cc2)n1` showed a Ki of 66.9 nM.

On to `NS(=O)(=O)c1ccc(NC(=O)Nc2nc(Nc3ccc(S(N)(=O)=O)cc3)nc(N3CCCCC3)n2)cc1`, for which the Ki came to 28.4 nM.

`NS(=O)(=O)c1ccc(NC(=O)Nc2nc(Cl)nc(Nc3ccc(Cl)c(Cl)c3)n2)cc1` came in with a Ki of 35.6 nM.

Turning to `CN(C)c1nc(NC(=O)Nc2ccc(S(N)(=O)=O)cc2)nc(Nc2ccccc2)n1`, affinity was put at a Ki of 19 nM.

`NS(=O)(=O)c1ccc(NC(=O)Nc2nc(Nc3ccc(S(N)(=O)=O)cc3)nc(N3CCOCC3)n2)cc1`: the Ki stood at 24.9 nM.

Turning to `NS(=O)(=O)c1ccc(NC(=O)Nc2nc(Cl)nc(Nc3ccc(Cl)cc3)n2)cc1`, the Ki amounted to 44 nM.

With `CN(C)c1nc(NC(=O)Nc2ccc(S(N)(=O)=O)cc2)nc(Nc2ccc(Cl)c(Cl)c2)n1`, the Ki was found to be 23.5 nM.

`NS(=O)(=O)c1ccc(NC(=O)Nc2nc(Nc3ccccc3)nc(N3CCCCC3)n2)cc1` yielded an inhibition constant Ki of 32.3 nM.

With `CN(C)c1nc(NC(=O)Nc2ccc(S(N)(=O)=O)cc2)nc(Nc2ccc(S(N)(=O)=O)cc2)n1`, the Ki was 14.6 nM. This Ki is about 2.2-fold lower than that of the compound before.
